Results: US20230226135A9, “ACETYLCHOLINE MODULATION OF IMMUNE FUNCTION” (BCell Solutions, Inc., priority 2019, published 2023)
Entries after “also recorded” stand apart in the source; their conditions may differ.

What was measured:
[1] = system: splenic B cells; assay: CFA-sensitized mice treated with Peptide with or without MLA, FACS of splenic B cells; assay type: in vivo
Description: SUMMARY: A study was conducted to evaluate a potential alpha7 nAChR anti-inflammatory mechanism of the MKR-4 peptide, using the alpha7 nAChR antagonist methyllycaconitine (MLA). After enrollment, animals in Groups 2-4 were sensitized ID at the base of the tail with 0.1 mL FCA on Day 1. On Days 2, 3, 5 & 7 Groups were then dosed intraperitoneally (IP) with either: peptide and MLA in combination (2 mg/kg and 6 mg/kg, respectively); peptide (2 mg/kg) and MLA vehicle (saline) in combination; or peptide vehicle (saline) and MLA vehicle (saline). Animals were dosed once on Study Day 2 (MLA or MLA vehicle), and Days 3, 5 & 7 (Peptide or Peptide vehicle, MLA or MLA vehicle) as described in Table 2 below. Body weights were recorded on Study Days 0 & 8. Mice were euthanized for necropsy on Study Day 8, and serum and whole spleens were collected from all animals and sent to the sponsor for internal FACS analysis. Toxicity and Peptide mechanistic evaluation was based on absolute body weight change, spleen weights and sponsor FACS analysis (not included in report).
Antibodies and Flow Cytometry. Single cell suspensions were made of tissues or cells harvested from culture and stained with the following monoclonal antibodies: a monoclonal antibody directed against mouse alpha 7 nicotinic acetylcholine receptor (alpha 7 nAChR) (Santa Cruz Biotechnology); anti-mouse MHC Class II (M5114), and anti-mouse CLIP 15G4, Santa Cruz. Following staining, cells were analyzed comparing each level of staining to the appropriate isotype control on a Beckman Coulter Cytoflex benchtop flow cytometer. Data was analyzed using FlowJo software (Tree Star Inc.).
Experimental Design: On Study Day 0, mice were weighed and randomized by body weight into treatment groups. Following randomization, on Study Day 1, Groups 2-4 were sensitized ID at the base of the tail with 0.1 mL of FCA. When MLA and Peptide (FRIMAVLAS (SEQ ID NO: 389))—or their vehicles—were dosed on the same day, the MLA antagonist or vehicle was dosed 1 hour before the Peptide or its vehicle.
On Study Day 8, mice were anesthetized with Isoflurane (VetOne, Cat #502017) and bled to exsanguination followed by cervical dislocation for necropsy and tissue collection.

[2] = system: IL1β and IL6; assay: Collagen-induced arthritis model (collagen emulsion in CFA), pro-inflammatory cytokines; assay type: in vivo, mice
Description: FIG. 8. Collagen-induced arthritis model. Animals were injected with a collagen emulsion in Complete Freunds Adjuvant (CFA) and treated with either CAP during early disease development or once arthritic disease was established.
Central to the overarching hypothesis, is the anti-inflammatory effects of CAP.
Rheumatoid arthritis (RA), an autoimmune condition caused by the immune system attacking healthy body tissue by directing antibodies to the lining of the joints, where they attack the tissue surrounding the joint. In an established mouse model of RA, induced by injection of collagen and Complete Freunds Adjuvant (CFA), there is an increase in the pro-inflammatory cytokines, IL1B and IL6 (FIG. 17). […] Therefore, different doses of CAP appear to be effective in the developing versus the established stages of the disease. These changes were accompanied by a reduction in peripheral B cells. These findings are important because IL6 and IL1B are differentially elevated depending on the severity of various infections, such as SARS-CoV-2. Thus, testing different doses of CAP at different stages of infection will be helpful to optimizing translational therapy.

[3] = system: IL17a; assay: Preeclampsia model in pregnant mice (TLR agonists), IL17; assay type: in vivo; conditions: PolyI:C or R837 induced; CAP i.p. (2 mg/kg, gestational day 13 elsewhere in the source)
Description: FIG. 9. CAP reduces IL-17 production in a model of preeclampsia. Pregnant mice were treated with the TLR3 or […] agonists to induce symptoms of preeclampsia, followed by CAP treatment.
(§1) In a separate study, preeclampsia was induced in pregnant mice by injection of either the toll-like receptor 3 (TLR3) agonist, PolyI:C, or with the toll-like receptor 8 ([…]) agonist R837. […] It is pertinent to note that this power issue has been corrected.
Preeclampsia, a disease suffered by pregnant woman that is characterized by high blood pressure and signs of damage to other organ systems, most often the liver and kidneys, is often accompanied by inflammation. […] Preeclampsia is also associated with an elevated TH17 response, including elevated IL17a, and elevated IL17a is associated with human and experimental hypertension and poor perinatal outcomes. […] Therefore, the anti-inflammatory effects of CAP were associated with improved outcomes in this model.

[4] = system: IL1b, IL6 and IL17; assay: TBI-induced changes in brain cytokines; assay type: in vivo, mice; conditions: CAP i.p. 30 minutes after TBI, brains harvested 24 hours after TBI; not significant, under-powered
Description: FIG. 10. TBI-induced changes in brain cytokines. TBI induced increase in brain IL1b, IL6 and IL17 are reversed by CAP. Cap was administered i.p. 30 minutes after TBI and brains were harvested 24 hours after TBI.
as §1

[5] = system: CLIP+ B cells; assay: CFA-induced arthritis model, CAP depletion of B cells with or without α7nAChR antagonist; assay type: in vivo, mice
Description: FIGS. 11A-11B. […] In this study, CAP was administered at 3 days after CFA, then once daily every 3 days, until day 10 after CFA.
The next series of experiments are focused on the effects of CAP on splenic immune cells. […] As part of this experiment, the mice were co-treated with CAP and the alpha-7 nicotinic acetylcholine receptor (α7nAChR) antagonist, methyllycaconitine (MCA).

[6] = system: CD8+ T cells; assay: CAP-induced expansion of CD8+ T cells with or without α7nAChR antagonist; assay type: in vivo; conditions: CAP treatment
[7] = LPS model of sepsis, autoregulation of arterial pressure / afferent arteriolar autoregulatory behavior; assay type: in vivo; conditions: LPS treated rats, CAP treatment
Description: FIGS. 16A-16B. Treatment with CAP restores afferent arteriolar autoregulatory behavior in chronic LPS (0.1 mg/kg/day) treated kidneys. Each data point represents the mean±SE. * P<0.05 vs. control diameter in the same group. ‡ P<0.05 vs. control for the same perfusion pressure. # P<0.05 vs. CAP for the same perfusion pressure.
Sepsis is a potentially life-threatening condition, is caused by excessive inflammation resulting from the body trying to fend off infection. […] LPS treatment (0.84 mg/kg) of rats is used as a model of sepsis and results in loss of arterial pressure that is inflammatory and mimics loss of autoregulation in sepsis. We discovered that autoregulation of arterial pressure can be restored with CAP treatment (FIG. 16), further supporting its use to treat infectious disease associated with sepsis.

## FRIMAVLAS [CAP, α7nAChR agonist]
[1]; CFA treated and Peptide treated (2 mg/kg IP), vehicle 49.8%, CFA 50.1%
  percentage of splenic B cells: 34.4%
[1]; CFA treated mice, Peptide 2 mg/kg IP
  number of CLIP+ B cells: reduction
[2]; 0.2 mg/kg i.p., developing stage
  reducing IL1β and IL6: most efficacious
[2]; 20 mg/kg i.p., established stage
  reducing IL1β and IL6: most efficacious
[2]; RA model, CAP i.p.
  peripheral B cells: reduction
[2]; early or established disease, particularly in the established (late stage) model
  cytokines: dose dependent reduction
[2]; i.p. 2 mg/kg, developing stage
  reducing IL1B and IL6: most efficacious
[3]
  elevated IL17 (IL17a): significantly reduced
[4]
  brain IL1b, IL6 and IL17: trend toward a reduction; also recorded: reversed
[5]; 3x CAP treatment
  CFA-induced B cell expansion: reversed
[5]; CAP from 3 days after CFA, once every 3 days until day 10
  number of CLIP+ B cells (pro-inflammatory B cell populations): significantly reduced; also recorded: selectively depletes
[6]
  expansion of CD8+ T cells: induce the expansion; also recorded: induces expansion
[7]
  autoregulation of arterial pressure (afferent arteriolar autoregulatory behavior): restores
